# Reference: patent publication US20240400577A1, “MODULATORS OF PROTEIN KINASES” (VIBLIOME THERAPEUTICS, LLC, priority 2021, published 2024)
# How the values were obtained:
# Assay in all cases: Kinase panel enzymatic inhibition assay (Nanosyn)
# Type in all cases: biochemical
# ITK = biological target: T1, ITK (Homo sapiens, UniProt Q08881); settings: ATP at Km; 30-minute pre-incubation; read-out: kinase inhibition in terms of IC50, ITK
# T1 construct: Nanosyn (contract laboratory that ran the panel)
# T1 sequence (Q08881 1-620): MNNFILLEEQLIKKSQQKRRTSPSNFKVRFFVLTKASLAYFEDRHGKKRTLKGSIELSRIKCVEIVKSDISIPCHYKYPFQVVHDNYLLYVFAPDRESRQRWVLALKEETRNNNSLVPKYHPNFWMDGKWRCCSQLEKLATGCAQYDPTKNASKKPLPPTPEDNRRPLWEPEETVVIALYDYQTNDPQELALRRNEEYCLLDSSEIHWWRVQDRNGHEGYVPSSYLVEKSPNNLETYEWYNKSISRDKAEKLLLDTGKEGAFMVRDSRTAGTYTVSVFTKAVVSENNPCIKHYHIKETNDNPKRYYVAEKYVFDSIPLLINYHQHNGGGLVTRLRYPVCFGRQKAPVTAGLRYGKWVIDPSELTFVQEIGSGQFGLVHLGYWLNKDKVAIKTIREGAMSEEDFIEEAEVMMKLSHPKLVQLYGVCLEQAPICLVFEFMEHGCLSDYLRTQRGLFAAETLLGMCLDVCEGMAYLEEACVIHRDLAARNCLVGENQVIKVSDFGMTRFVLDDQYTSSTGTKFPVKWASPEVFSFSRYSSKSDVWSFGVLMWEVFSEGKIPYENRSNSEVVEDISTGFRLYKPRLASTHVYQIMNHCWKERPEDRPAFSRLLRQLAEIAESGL
# Experimental: (§1) The disclosed compounds were tested for activity against a panel of at least 300 kinases. Kinase panel screening was conducted by Nanosyn (Santa Clara, CA 95051) using an enzymatic inhibition assay accepted as valid by those skilled in the art (e.g., the Caliper LabChip® mobility shift assay, an ADP detection assay, or time-resolved fluorescence detection technology. Compounds were screened at a concentration of 5 μM using an ATP concentration at the Km for each of the respective kinases and a 30-minute pre-incubation time-point.
# (§2) In Table 1 and 2, kinase inhibition is classified by: A=95% or greater, B=90%-94%, C=80%-89%, and D=79% and less with a compound concentration of 5 JIM. In Table 3 and 4, kinase inhibition is reported in terms of IC50 values corresponding to A=less than 500 nm, B=500 nm to less than 1 μM, C=1 μM to less than 10 μM, and D=10 μM or greater using a compound concentration of 5 μM.
# PAK1 = biological target: T2, PAK1 (Homo sapiens, UniProt Q13153); settings: ATP at Km; 30-minute pre-incubation; read-out: kinase inhibition in terms of IC50, PAK1
# T2 construct: Nanosyn (contract laboratory that ran the panel)
# Experimental: as §1, §2
# PAK2 = biological target: T3, PAK2 (Homo sapiens, UniProt Q13177); settings: ATP at Km; 30-minute pre-incubation; read-out: kinase inhibition in terms of IC50, PAK2
# T3 construct: Nanosyn (contract laboratory that ran the panel)
# Experimental: as §1, §2
# PAK4 = biological target: T4, PAK4 (Homo sapiens, UniProt O96013); settings: ATP at Km; 30-minute pre-incubation; read-out: kinase inhibition in terms of IC50, PAK4
# T4 construct: Nanosyn (contract laboratory that ran the panel)
# Experimental: as §1, §2
# WEE1 = biological target: T5, WEE1 (Homo sapiens, UniProt P30291); settings: ATP at Km; 30-minute pre-incubation; read-out: kinase inhibition in terms of IC50, WEE1
# T5 construct: purchased Nanosyn
# Experimental: as §1, §2
# JAK3 = biological target: T6, JAK3 (Homo sapiens, UniProt P52333); settings: ATP at Km; 30-minute pre-incubation; read-out: kinase inhibition in terms of IC50, JAK3
# T6 construct: Nanosyn (contract laboratory that ran the panel)
# T6 sequence (P52333 1-1124): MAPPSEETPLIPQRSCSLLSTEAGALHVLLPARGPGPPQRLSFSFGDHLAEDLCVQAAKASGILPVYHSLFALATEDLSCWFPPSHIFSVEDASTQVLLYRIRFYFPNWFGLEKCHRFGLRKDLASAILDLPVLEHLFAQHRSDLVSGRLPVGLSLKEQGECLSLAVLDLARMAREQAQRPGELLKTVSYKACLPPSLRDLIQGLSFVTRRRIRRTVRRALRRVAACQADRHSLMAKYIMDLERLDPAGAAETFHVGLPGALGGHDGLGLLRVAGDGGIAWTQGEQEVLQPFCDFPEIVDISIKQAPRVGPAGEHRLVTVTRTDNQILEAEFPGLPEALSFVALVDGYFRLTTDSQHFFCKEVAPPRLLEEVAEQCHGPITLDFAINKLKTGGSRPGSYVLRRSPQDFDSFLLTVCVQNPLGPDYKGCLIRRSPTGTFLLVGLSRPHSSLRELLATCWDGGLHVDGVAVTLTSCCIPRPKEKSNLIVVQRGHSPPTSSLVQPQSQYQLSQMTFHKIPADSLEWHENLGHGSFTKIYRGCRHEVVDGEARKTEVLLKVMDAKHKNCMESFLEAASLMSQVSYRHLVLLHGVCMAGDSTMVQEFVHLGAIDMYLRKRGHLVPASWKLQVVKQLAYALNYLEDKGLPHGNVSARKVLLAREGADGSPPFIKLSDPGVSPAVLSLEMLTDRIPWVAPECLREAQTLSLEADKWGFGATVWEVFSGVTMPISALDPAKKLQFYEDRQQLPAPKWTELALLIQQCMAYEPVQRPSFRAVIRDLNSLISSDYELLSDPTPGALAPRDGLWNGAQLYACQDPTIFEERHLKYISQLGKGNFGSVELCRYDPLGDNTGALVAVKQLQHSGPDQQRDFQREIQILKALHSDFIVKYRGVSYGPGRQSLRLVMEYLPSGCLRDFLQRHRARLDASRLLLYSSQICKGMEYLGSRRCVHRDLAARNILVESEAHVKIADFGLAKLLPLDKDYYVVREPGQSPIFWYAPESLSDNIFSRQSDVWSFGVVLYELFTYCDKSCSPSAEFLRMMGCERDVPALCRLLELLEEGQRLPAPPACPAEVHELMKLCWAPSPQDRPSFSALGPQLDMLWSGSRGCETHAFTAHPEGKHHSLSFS
# Experimental: as §1, §2
# TYK2 = biological target: T7, TYK2 (Homo sapiens, UniProt P29597); settings: ATP at Km; 30-minute pre-incubation; read-out: kinase inhibition in terms of IC50, TYK2
# T7 construct: purchased Nanosyn
# Experimental: as §1, §2
# T2 sequence (Q13153 whole entry): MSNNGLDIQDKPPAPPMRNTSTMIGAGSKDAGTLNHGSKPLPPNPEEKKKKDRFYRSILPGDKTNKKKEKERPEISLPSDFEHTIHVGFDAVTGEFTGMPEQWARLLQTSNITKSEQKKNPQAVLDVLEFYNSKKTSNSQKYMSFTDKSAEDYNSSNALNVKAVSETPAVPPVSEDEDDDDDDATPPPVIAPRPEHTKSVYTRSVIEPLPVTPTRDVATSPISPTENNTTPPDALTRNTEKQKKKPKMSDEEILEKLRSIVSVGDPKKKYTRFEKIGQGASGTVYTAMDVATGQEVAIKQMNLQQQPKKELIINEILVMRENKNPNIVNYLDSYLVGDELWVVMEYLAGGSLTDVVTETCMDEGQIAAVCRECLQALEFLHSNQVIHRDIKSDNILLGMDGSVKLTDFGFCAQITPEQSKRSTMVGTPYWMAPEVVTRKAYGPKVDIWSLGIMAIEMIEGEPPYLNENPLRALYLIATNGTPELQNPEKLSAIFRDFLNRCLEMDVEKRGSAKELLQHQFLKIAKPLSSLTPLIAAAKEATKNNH
# T3 sequence (Q13177 whole entry): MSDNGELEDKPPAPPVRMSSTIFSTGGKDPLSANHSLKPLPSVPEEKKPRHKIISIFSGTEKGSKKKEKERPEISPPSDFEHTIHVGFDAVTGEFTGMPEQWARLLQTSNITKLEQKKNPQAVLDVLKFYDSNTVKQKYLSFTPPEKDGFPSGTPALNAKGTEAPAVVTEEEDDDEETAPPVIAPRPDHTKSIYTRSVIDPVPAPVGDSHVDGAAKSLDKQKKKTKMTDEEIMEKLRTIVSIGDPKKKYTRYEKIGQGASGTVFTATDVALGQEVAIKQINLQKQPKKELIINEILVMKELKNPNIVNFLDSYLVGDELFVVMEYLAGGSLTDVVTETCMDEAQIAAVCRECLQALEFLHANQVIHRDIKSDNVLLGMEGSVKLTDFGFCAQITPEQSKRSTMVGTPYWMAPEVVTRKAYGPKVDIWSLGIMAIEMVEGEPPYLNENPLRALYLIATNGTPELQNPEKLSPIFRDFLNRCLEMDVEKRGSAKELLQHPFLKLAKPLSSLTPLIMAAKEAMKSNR
# T7 sequence (P29597 whole entry): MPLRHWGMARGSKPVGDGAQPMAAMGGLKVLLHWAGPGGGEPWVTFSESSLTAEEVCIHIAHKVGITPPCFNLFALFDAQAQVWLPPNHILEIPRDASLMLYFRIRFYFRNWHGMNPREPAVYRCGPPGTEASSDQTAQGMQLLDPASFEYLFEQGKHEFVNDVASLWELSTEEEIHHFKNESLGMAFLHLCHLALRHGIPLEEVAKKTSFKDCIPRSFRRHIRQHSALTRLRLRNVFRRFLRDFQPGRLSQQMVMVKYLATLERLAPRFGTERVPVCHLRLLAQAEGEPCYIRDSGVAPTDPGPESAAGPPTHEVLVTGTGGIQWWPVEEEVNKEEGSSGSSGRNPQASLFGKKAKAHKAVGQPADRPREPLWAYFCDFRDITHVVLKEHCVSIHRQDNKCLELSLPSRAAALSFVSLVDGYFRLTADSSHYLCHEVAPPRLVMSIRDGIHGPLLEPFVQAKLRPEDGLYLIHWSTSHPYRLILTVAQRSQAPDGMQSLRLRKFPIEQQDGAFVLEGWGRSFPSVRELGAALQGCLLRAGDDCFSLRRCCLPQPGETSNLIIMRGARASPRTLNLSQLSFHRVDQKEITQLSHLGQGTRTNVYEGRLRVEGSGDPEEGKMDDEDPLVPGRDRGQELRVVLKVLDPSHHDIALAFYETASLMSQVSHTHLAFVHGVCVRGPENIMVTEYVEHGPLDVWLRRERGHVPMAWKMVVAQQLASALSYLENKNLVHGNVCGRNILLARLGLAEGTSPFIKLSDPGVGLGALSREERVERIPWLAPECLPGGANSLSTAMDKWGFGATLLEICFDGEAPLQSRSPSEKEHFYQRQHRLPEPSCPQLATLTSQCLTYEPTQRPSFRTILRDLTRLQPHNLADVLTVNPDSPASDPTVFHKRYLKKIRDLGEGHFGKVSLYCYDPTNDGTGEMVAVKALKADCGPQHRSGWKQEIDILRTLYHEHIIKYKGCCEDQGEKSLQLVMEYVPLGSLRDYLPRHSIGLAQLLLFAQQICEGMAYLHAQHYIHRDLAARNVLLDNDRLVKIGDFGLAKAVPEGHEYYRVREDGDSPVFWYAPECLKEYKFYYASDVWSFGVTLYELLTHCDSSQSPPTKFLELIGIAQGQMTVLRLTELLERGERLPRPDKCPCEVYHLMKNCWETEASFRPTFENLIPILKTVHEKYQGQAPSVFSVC
# T4 sequence (O96013 whole entry): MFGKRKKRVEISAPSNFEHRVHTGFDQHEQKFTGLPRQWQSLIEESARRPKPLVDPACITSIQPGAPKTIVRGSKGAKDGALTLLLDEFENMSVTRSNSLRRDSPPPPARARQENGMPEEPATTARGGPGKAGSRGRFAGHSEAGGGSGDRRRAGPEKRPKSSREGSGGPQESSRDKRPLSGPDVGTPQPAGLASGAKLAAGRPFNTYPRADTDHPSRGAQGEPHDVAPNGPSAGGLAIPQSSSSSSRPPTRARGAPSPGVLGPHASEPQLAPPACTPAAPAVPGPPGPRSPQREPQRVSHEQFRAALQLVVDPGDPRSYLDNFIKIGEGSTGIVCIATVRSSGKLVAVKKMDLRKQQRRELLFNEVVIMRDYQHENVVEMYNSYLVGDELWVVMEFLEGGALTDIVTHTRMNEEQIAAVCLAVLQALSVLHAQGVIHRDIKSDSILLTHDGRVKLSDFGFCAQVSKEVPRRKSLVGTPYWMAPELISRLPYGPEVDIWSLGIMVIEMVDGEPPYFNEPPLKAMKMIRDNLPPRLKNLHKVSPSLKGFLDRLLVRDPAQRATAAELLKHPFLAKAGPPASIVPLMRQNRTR
# T5 sequence (P30291 whole entry): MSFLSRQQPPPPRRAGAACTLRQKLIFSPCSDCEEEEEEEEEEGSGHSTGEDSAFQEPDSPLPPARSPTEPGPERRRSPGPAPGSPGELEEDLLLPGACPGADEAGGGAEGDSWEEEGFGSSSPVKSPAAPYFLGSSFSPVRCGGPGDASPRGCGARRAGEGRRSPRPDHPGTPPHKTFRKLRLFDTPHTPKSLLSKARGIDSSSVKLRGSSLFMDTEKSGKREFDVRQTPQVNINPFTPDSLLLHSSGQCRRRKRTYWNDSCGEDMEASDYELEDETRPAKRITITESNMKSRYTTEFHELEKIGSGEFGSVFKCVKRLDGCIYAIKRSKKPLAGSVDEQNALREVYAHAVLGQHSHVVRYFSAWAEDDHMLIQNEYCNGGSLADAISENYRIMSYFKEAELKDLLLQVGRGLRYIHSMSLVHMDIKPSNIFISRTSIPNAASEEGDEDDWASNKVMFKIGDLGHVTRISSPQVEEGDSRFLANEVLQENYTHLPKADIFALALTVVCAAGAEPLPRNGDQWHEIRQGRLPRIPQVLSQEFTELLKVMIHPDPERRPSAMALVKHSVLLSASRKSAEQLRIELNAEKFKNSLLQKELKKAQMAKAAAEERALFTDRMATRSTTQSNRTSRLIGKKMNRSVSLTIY
compound,measurement,setting,value
"Cc1ccc(NC(=O)c2ccn(-c3ccc(F)cc3)n2)cc1Nc1nccc(-c2cccnc2)n1 [Ex75, 1-(4-fluorophenyl)-N-(4-methyl-3-((4-(pyridin-3-yl)pyrimidin-2-yl)amino)phenyl)-1H-pyrazole-3-carboxamide]",IC50,ITK,≥ 10 µM
"CNc1ncc2cc(-c3cc(NC(=O)c4cc(S(C)(=O)=O)n(-c5ccc(F)cc5)n4)ccc3Cl)c(=O)n(C)c2n1 [Ex76, N-(4-chloro-3-(8-methyl-2-(methylamino)-7-oxo-7,8-dihydropyrido[2,3-d]pyrimidin-6-yl)phenyl)-1-(4-fluorophenyl)-5-(methylsulfonyl)-1H-pyrazole-3-carboxamide]",IC50,PAK1,≥ 10 µM
same,IC50,PAK2,≥ 10 µM
same,IC50,PAK4,1 to 10 µM
same,IC50,WEE1,≥ 10 µM
"CNc1ncc2cc(-c3cc(NC(=O)c4ccn(-c5ccc(F)cc5)n4)c(F)cc3C)c(C)nc2n1 [Ex85, N-(2-fluoro-4-methyl-5-(7-methyl-2-(methylamino)pyrido[2,3-d]pyrimidin-6-yl)phenyl)-1-(4-fluorophenyl)-1H-pyrazole-3-carboxamide]",IC50,PAK1,≥ 10 µM
same,IC50,PAK2,≥ 10 µM
"Cc1cnc2[nH]cc(Cc3ccc(NC(=O)c4cc(S(C)(=O)=O)n(-c5ccc(F)cc5)n4)nc3F)c2c1 [Ex87, N-(6-fluoro-5-((5-methyl-1H-pyrrolo[2,3-b]pyridin-3-yl)methyl)pyridin-2-yl)-1-(4-fluorophenyl)-5-(methylsulfonyl)-1H-pyrazole-3-carboxamide]",IC50,JAK3,≥ 10 µM
same,IC50,TYK2,≥ 10 µM
